# Data reported in patent US20250099609A1 (priority 2023, published 2025).
# Assays:
# [1] = test system: stem cells; assay: Stem cell conversion to fat cells after radiation; type: cell-based; settings: after exposure to radiation (IR 21d)
# Description: All treatment was administered with radiation (IR 21d).
# Radiation exposure, post-menopausal osteoporosis, and diabetes are conditions that cause stem cells to favor conversion to fat cells instead of conversion to bone cells. This process progresses to tissue dysfunction. Stem cells were treated with P7C3 or with cerium oxide nanoparticles (CNPs) after exposure to radiation. […] All treatment was administered with radiation (IR 21d).
# [2] = test system: stem cells; assay: Bone mineral formation / new bone deposition after radiation (Alizarin red); type: cell-based; settings: 14 days of culture; treatment 24 h or 48 h after radiation (7 Gy)
# Description: Radiation reduces the ability of bone cells to produce bone. […] This is further confirmed when the cells are cultured over a longer period of 28 days.
# The data showing assessed bone formation was supported by quantification of new bone deposition.
# (**** p<0.000) The synergistic effect continues when treatment is administered more than 24 hours after radiation exposure.
# [3] = test system: bone; settings: literature refs 15 and 19; cited from earlier work
# [4] = in vivo; cited from earlier work
# [5] = test system: mesenchymal stem cells; assay: Alkaline phosphatase (ALP) assay after radiation; type: cell-based; settings: treatment 24 h or 48 h after ionizing radiation
# Text: FIGS. 6A-B show results of an alkaline phosphatase (ALP) assay. The micrographs show assessed bone formation after treatment with P7C3, with cerium oxide nanoparticles (CNPs), or with a combination of P7C3 and CNPs.
# [6] = test system: osteoclasts; assay: Osteoclast maturation (DAPI/Phalloidin staining); type: cell-based; settings: without radiation
# Description: This treatment was carried out without exposing the osteoclasts to radiation.
# [7] = test system: post-menopausal osteoporosis; assay: Post-menopausal osteoporosis in animals; type: in vivo
# Text: The above embodiments also relate to the field of medicine for an article of manufacture delivering a prophylactic and therapeutic tissue strategy for osteoporosis. The remarkable increase in average life expectancy during the 20th century ranks as one of society's greatest achievements. As a result, the world's elderly population (aged ≥65 years) continues to grow at an unprecedented rate. As the proportion of the oldest-old (aged >85 years) and length of life expectancy increases, a rise in age-related degenerating diseases, disability, and prolonged dependency is projected. Age-related bone loss and osteoporosis is inevitable in both men and women, and can lead to fragility fractures, immobility, and disability. Currently, bisphosphonate treatment and weight-bearing exercise are commonly used therapeutic approaches, but both with limited long-term success.
# [8] = test system: primary and metastatic cancer cell; assay: Primary and metastatic cancer cell growth; type: cell-based; settings: at therapeutic levels
# Text: This invention combines these two unique approaches as a bi-modal and multifunctional chimeric nanostrategy to combat against ionizing radiation-induced damage.
structure (smiles),measurement,setting,value
"OC(CNc1ccccc1)Cn1c2ccc(Br)cc2c2cc(Br)ccc21 (centres unmarked) [P7C3, aminopropyl carbazole]",fat formation from stem cells,[1],inhibit fat formation
same,new bone deposition (micrographs),[2],does not substantially increase new bone deposition
same,countermeasure against ionizing radiation-induced bone damage and/or bone loss,[3],effective countermeasure
same,oral bioavailability,[4],high oral bioavailability
same,alkaline phosphatase expression / conversion of stem cells to osteoblasts,[5],limited upregulation
same,maturation of osteoclasts,[6],stops the maturation of osteoclasts
same,progression of post-menopausal osteoporosis,[7],reduces the progression
same,primary and metastatic cancer cell growth,[8],significantly reduces
